Test results: ChEMBL document CHEMBL1156644, “Cembrane diterpenes from the gorgonian Leptogorgia laxa” (2008)

Key:
Type in all cases: functional
HT-29 = experiment: Cytotoxicity against human HT29 cells by SRB method
MDA-MB-231 = experiment: Cytotoxicity against human MDA-MB-231 cells by SRB method
A549 = experiment: Cytotoxicity against human A549 cells by SRB method

Compound | GI50 (HT-29) [µM] | GI50 (MDA-MB-231) [µM] | GI50 (A549) [µM]
C=C(C)[C@@H]1CC/C(C)=C/CC/C(C)=C\C(=O)C[C@@]2(C)O[C@@H]2C1 [LEPTODIENONE A] | 14.9 | 16.2 | 
C=C(C)[C@@H]1CC/C(C)=C/CC/C(C)=C/C(=O)C[C@@]2(C)O[C@@H]2C1 [LEPTODIENONE B] | 10.9 | 6.3 | 5.6
